Activity and bioavailability data for 1 molecule are collected here from ChEMBL document CHEMBL2057187, “AM-8553: a novel MDM2 inhibitor with a promising outlook for potential clinical development” (J Med Chem, 2012).

SMILES strings stand for the structures.

The test system of data set [1] is SJSA-1. Kind of data set: Antitumor activity against human SJSA1 cells xenografted in mouse assessed as tumor regression at 200 mg/kg, qd. It counts as functional.
Data set [2] is described as follows: Oral bioavailability in mouse. The settings on record: in vivo. The class given is ADME, organism-based.
Data set [3] can be described thus: Oral bioavailability in rat. The class given is ADME, organism-based. The settings on record: in vivo.

`CC[C@@H]([C@H](C)O)N1C(=O)[C@@](C)(CC(=O)O)C[C@H](c2cccc(Cl)c2)[C@H]1c1ccc(Cl)cc1`: the Activity in data set [1] came out at 27%. Also, the bioavailability was found to be 12% in data set [2] and 100% in data set [3].
